Data on 1 compound can be found in article PMC8120209, “Longitudinal evaluation of a novel BChE PET tracer as an early in vivo biomarker in the brain of a mouse model for Alzheimer disease” (Theranostics, 2021).

Assay in all cases: biochemical
Assay [1] deals with T1, kappa (h) (KOP) (Homo sapiens, UniProt P41145).
T1 construct: gene OPRK1
Set-up: Eurofins SafetyScreen44 radioligand displacement, inhibition of control specific binding. The note with it: read-out: % Inhibition of Control Specific Binding, Mean.

For assay [2], the target named is T2, 5-HT1B (h) (Homo sapiens, UniProt P28222).
T2 construct: gene HTR1B
Set-up: Eurofins SafetyScreen44 radioligand displacement, inhibition of control specific binding. The note with it: read-out: % Inhibition of Control Specific Binding, Mean.

Assay [3] concerns the target T3, D2L(h) (Homo sapiens, UniProt P14416).
T3 construct: gene DRD2; long isoform D2L
Also on record: Eurofins SafetyScreen44 radioligand displacement, inhibition of control specific binding. The conditions noted are these: read-out: % Inhibition of Control Specific Binding, Mean.

In assay [4] the target is T4, PDE4D2 (h) (Homo sapiens, UniProt Q08499).
T4 construct: gene PDE4D; isoform PDE4D2
Also on record: Eurofins SafetyScreen44 enzyme assays, inhibition of control specific activity. The conditions noted are these: read-out: % Inhibition of Control Values, Mean.

T1 sequence (P41145 whole entry): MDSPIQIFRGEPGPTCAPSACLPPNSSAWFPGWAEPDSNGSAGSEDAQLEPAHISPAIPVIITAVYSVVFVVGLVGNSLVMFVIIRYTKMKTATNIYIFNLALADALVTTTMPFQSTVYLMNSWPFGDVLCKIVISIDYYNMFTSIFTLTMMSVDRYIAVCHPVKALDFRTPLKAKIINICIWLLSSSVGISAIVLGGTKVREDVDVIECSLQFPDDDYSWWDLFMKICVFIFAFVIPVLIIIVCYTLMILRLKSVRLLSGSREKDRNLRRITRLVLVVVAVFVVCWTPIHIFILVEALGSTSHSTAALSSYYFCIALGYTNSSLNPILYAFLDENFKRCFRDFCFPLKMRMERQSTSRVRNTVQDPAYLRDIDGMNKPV
T2 sequence (P28222 whole entry): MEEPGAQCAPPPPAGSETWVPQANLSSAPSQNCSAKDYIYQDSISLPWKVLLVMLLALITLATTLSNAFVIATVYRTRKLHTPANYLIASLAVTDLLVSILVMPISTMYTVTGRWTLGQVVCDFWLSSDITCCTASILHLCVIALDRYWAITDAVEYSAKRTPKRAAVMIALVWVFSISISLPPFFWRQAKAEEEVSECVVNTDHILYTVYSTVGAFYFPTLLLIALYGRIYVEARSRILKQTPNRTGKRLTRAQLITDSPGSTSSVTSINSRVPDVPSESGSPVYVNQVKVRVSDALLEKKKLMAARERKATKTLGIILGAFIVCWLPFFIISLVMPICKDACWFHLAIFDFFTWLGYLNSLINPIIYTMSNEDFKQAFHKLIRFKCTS
T4 sequence (Q08499 whole entry, canonical isoform): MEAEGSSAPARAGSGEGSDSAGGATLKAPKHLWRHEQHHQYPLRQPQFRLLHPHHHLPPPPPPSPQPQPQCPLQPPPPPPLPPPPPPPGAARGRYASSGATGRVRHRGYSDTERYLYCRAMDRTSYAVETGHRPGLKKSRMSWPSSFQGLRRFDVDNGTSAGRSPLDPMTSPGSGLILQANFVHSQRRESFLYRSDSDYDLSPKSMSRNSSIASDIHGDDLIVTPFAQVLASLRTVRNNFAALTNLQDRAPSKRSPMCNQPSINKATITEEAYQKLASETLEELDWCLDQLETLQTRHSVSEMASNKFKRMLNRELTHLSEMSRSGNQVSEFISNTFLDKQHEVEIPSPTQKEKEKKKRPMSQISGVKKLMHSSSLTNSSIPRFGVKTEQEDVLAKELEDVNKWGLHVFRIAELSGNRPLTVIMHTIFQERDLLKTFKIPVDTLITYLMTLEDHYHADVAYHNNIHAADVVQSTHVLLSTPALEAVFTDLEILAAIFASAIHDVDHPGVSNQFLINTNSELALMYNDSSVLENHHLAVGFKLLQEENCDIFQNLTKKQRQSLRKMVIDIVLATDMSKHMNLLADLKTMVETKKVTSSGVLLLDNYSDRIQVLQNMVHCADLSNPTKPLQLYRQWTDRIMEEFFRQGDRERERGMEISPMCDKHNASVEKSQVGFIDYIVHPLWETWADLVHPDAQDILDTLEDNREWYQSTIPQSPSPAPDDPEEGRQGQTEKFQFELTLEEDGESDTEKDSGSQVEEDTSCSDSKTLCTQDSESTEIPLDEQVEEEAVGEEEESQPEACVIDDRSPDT
T3 sequence (P14416 whole entry, canonical isoform): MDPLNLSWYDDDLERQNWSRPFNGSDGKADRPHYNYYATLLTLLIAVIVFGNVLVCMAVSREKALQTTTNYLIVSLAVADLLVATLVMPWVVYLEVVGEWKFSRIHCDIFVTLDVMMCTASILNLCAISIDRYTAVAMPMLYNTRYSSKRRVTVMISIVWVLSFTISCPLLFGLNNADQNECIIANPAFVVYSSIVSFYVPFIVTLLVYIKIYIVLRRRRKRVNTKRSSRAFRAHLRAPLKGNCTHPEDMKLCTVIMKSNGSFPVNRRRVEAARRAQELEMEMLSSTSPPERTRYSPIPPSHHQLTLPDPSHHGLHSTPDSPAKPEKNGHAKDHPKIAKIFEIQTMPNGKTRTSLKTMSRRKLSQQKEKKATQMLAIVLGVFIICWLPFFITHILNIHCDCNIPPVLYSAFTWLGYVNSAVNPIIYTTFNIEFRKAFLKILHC

Regarding `COCCN(CC1CCCN(Cc2ccccc2)C1)S(=O)(=O)c1ccc2ccccc2c1` (racemic) [compound 4, (±)N-((1-benzylpiperidin-3-yl)methyl)-N-(2-methoxyethyl)naphthalene-2-sulfonamide], the inhibition at 10 µM in assay [1] was 26.1%; in assay [2], 45%; in assay [3] it was 26.6%; in assay [4], -3.7%.

As a reminder, the inhibition is the relative decrease from the control value, in per cent.
